Consider 16 compounds from US8455525B2, “Selective androgen receptor modulators” (Radius Health, Inc., priority 2008, dated 2013).

SMILES strings stand for the structures. pIC50: −log10 of the molar value. Where a name gives a salt, the structure may show the parent alone. Read-outs that look alike come from different tables or passages of the source.

In assay [1] the test system is young, orchidectomized rats. In words: Rat Herschberger assay: organ weights of orchidectomized rats relative to sham. In kind it is in vivo, rat (Sprague Dawley). The settings on record: 10 mg/kg (po), once daily for 4 days. The text has this: The following is a typical procedure of the in vivo evaluation of the selective androgens of this invention. In particular, this assay looks primarily at the ability of the selective androgens of this invention to increase muscle size in an immature, castrated rat. In addition, androgenic effects are looked at primarily by weighing the prostate and seminal vesicles. Selective compounds will show a greater increase in the levator ani relative to the prostate and seminal vesicles when compared to testosterone treated, castrated animals or to intact animals that have not been treated. Immature Sprague Dawley male rats were obtained Charles River Laboratories (Stoneridge, N.Y.). All animals were maintained in a temperature and humidity controlled room with a 12 hr light: 12 hr dark cycle, with ad lib access to food (TD 291615, Teklad, Madison, Wis.) and water. Rats were anesthetized and orchidectomized (GDX) or sham surgery (SHAM) was performed. After a 7-day recovery period, the animals were randomized according to weight and assigned to treatment groups (n=5), SHAM, OVX+ vehicle, OVX+Cpd treated. Testosterone propionate (TP 1 mg/kg in 5% DMSO/95% corn oil) was administered by once daily subcutaneous injections, while the compounds of the invention are dosed in vehicle (typically 20% cyclodextrin or 0.5% carboxymethylcellulose) was administered by once daily oral gavage. The rats were then dosed once daily for 4 days. All animals were euthanized via carbon dioxide inhalation 24 hs after the last dose. The prostate, seminal vesicle and levator ani and bulba cavernous (LABC) tissues were removed, weighed and recorded. Body weights were recorded for each animal at baseline and at sacrifice.
Prostate, seminal vesicle and levator ani bulbus cavernosus (LABC) are all represented as % relative to sham. After sacrifice, organ weights of young, orchidectomized rats treated with compound for 4 days are compared to sham operated animals.

The target of assay [2] is T1, androgen receptor (AR) (Rattus norvegicus, UniProt P15207).
T1 construct: purchased Invitrogen, Madison, Wis
T1 sequence (P15207 651-902 limits assumed): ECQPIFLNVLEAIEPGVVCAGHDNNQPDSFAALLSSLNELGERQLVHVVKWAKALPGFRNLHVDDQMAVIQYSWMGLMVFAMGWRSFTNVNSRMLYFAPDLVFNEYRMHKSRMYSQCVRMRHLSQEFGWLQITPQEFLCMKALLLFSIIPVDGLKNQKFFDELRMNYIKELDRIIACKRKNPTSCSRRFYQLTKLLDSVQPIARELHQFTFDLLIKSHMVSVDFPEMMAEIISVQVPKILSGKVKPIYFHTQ
The experiment in a line: androgen receptor binding assay (fluorescence polarization, Fluormone AL Green competition). The procedure:
The assay was performed as specified by the manufacturer (Invitrogen, Madison, Wis.). Briefly, 1 μl of 10 mM compound was added to 500 μl of AR screening buffer in a 1.5 ml eppendorf tube to make a 2×10^−5M stock. 10-fold serial dilutions of the test compounds were prepared ranging in concentration from 10^−5M to 10^−12M. Each dilution was added in triplicate to a black 384-microtiter plate. The test compounds will be diluted 2-fold in the final reaction. 2×AR-Fluormone™ complex was prepared with 2 nM Flourmone AL Green™ and 30 nM AR. 25 μl of 2× complex was aliquoted to each reaction well, such that the final reaction volume was 50 μl per well. Plate was sealed with a foil cover and incubated in the dark at room temperature for 4 h. Polarization values for each well were measured. The polarization values were plotted against the concentration of the test compound. […] As a control, a competition curve for R1881 (methyltrienolone) was performed for each assay. Curve Fitting was performed using GraphPad Prism® software from GraphPad™ Software Inc. Binding data are reported as a single determination if the experiment was run once only and as the average of experiments if the binding experiment was performed two or more times with that compound.
Where multiple data points have been taken, the value reported is the average of the multiple determinations.

Broadly, the pIC50 is the negative decadic logarithm of the IC50, by convention in mol/L. With `Cc1c(N[C@@H](c2nnc(-c3ccccc3)o2)[C@H](C)O)ccc(C#N)c1Cl` [Example 1, 2-chloro-4-((1R,2S)-2-hydroxy-1-(5-phenyl-1,3,4-oxadiazol-2-yl)propylamino)-3-methylbenzonitrile], in assay [1], the “LABC (levator ani bulbus cavernosus) weight, % relative to sham” value came out at 85%; the “Prostate weight, % relative to sham” value worked out at 46%; the “Seminal vesicle weight, % relative to sham” value was 69%. Besides, the pIC50 in assay [2] is 8.52.
On to `Cc1c(N[C@@H](c2nnc(-c3ccccc3)o2)[C@@H](C)O)ccc(C#N)c1Cl` [Example 3, 2-chloro-4-((1R,2R)-2-hydroxy-1-(5-phenyl-1,3,4-oxadiazol-2-yl)propylamino)-3-methylbenzonitrile], for which, in assay [1], the “LABC (levator ani bulbus cavernosus) weight, % relative to sham” value amounted to 99%; the “Prostate weight, % relative to sham” value turned out to be 43%; the “Seminal vesicle weight, % relative to sham” value worked out at 37%. The compound also showed a pIC50 in assay [2] of 8.22.
Consider `C[C@@H](O)[C@@H](Nc1ccc(C#N)c2sccc12)c1nnc(-c2ccc(C#N)cc2)o1` [Example 61, 4-((1R,2R)-1-(5-(4-cyanophenyl)-1,3,4-oxadiazol-2-yl)-2-hydroxypropylamino)benzo[b]thiophene-7-carbonitrile], for which, in assay [2] (single determination or average of multiple determinations, read-out: Binding IC50 (AR-Binding Affinity)), the pIC50 was 9.00.
For the compound `C[C@H](O)[C@@H](Nc1ccc(C#N)c2sccc12)c1nnc(-c2ccc(F)cc2)o1` [Example 62, 4-((1R,2S)-1-(5-(4-fluorophenyl)-1,3,4-oxadiazol-2-yl)-2-hydroxypropylamino)benzo[b]thiophene-7-carbonitrile], the pIC50 in assay [2] was 7.82.
In assay [2], `C[C@H](O)[C@@H](Nc1ccc(C#N)c2sccc12)c1nnc(-c2ccccc2)o1` [Example 63, 4-((1R,2S)-2-hydroxy-1-(5-phenyl-1,3,4-oxadiazol-2-yl)propylamino)benzo[b]thiophene-7-carbonitrile] gave a negative logarithm of the IC50 (pIC50) of 9.00.
On to `C[C@@H](O)[C@@H](Nc1ccc(C#N)c2sccc12)c1nnc(-c2ccc(F)cc2)o1` [Example 64, 4-((1R,2R)-1-(5-(4-fluorophenyl)-1,3,4-oxadiazol-2-yl)-2-hydroxypropylamino)benzo[b]thiophene-7-carbonitrile], for which the pIC50 in assay [2] was 9.00.
`C[C@@H](O)[C@@H](Nc1ccc(C#N)c2sccc12)c1nnc(-c2ccccc2)o1` [Example 65, 4-((1R,2R)-2-hydroxy-1-(5-phenyl-1,3,4-oxadiazol-2-yl)propylamino)benzo[b]thiophene-7-carbonitrile]: the pIC50 in assay [2] was 9.00.
As for `Cc1c(N[C@@H](c2nnc(-c3ccc(C(F)(F)F)cc3)o2)[C@H](C)O)ccc(C#N)c1Cl` [Example 68, 2-chloro-4-((1R,2S)-2-hydroxy-1-(5-(4-(trifluoromethyl)phenyl)-1,3,4-oxadiazol-2-yl)propylamino)-3-methylbenzonitrile], the pIC50 in assay [2] is 7.92.
`Cc1c(N[C@@H](c2nnc(-c3ccc(NC(=O)c4ccccc4)cc3)o2)[C@@H](C)O)ccc(C#N)c1Cl` [Example 69, N-(4-(5-((1R,2R)-1-(3-Chloro-4-cyano-2-methylphenylamino)-2-hydroxypropyl)-1,3,4-oxadiazol-2-yl)phenyl)benzamide] gave a pIC50 in assay [2] below 6.00.
`CC(=O)Nc1ccc(-c2nnc([C@H](Nc3ccc(C#N)c(Cl)c3C)[C@@H](C)O)o2)cc1` [Example 70, N-(4-(5-((1R,2R)-1-(3-Chloro-4-cyano-2-methylphenylamino)-2-hydroxypropyl)-1,3,4-oxadiazol-2-yl)phenyl)acetamide]: the pIC50 in assay [2] is 8.40.
`CCCC(=O)Nc1ccc(-c2nnc([C@H](Nc3ccc(C#N)c(Cl)c3C)[C@@H](C)O)o2)cc1` [Example 71, N-(4-(5-((1R,2R)-1-(3-Chloro-4-cyano-2-methylphenylamino)-2-hydroxypropyl)-1,3,4-oxadiazol-2-yl)phenyl)butyramide] gave a pIC50 in assay [2] of 6.55.
Take `Cc1c(N[C@@H](c2nnc(-c3ccc(OS(=O)(=O)O)cc3)o2)[C@H](C)O)ccc(C#N)c1Cl` [Example 72, Sodium 4-(5-((1R,2S)-1-(3-chloro-4-cyano-2-methylphenylamino)-2-hydroxypropyl)-1,3,4-oxadiazol-2-yl)phenyl sulfate]: in assay [2], the pIC50 is 6.11.
The compound `CC(=O)Nc1ccc(-c2nnc([C@H](Nc3ccc(C#N)c(Cl)c3C)[C@H](C)O)o2)cc1` [Example 78, N-(4-(5-((1R,2S)-1-(3-Chloro-4-cyano-2-methylphenylamino)-2-hydroxypropyl)-1,3,4-oxadiazol-2-yl)phenyl)acetamide] had a pIC50 in assay [2] of 9.00.
In assay [2], `Cc1c(N[C@H](CCO)c2nnc(-c3ccc(C#N)cc3)o2)ccc(C#N)c1Cl` [Example 79, (R)-2-chloro-4-(1-(5-(4-cyanophenyl)-1,3,4-oxadiazol-2-yl)-3-hydroxypropylamino)-3-methylbenzonitrile] had a pIC50 of 8.70.
In turn, `C=Cc1c(N[C@@H](c2nnc(-c3ccc(C#N)cc3)o2)[C@H](C)O)ccc(C#N)c1Cl` [Example 80, 2-chloro-4-((1R,2S)-1-(5-(4-cyanophenyl)-1,3,4-oxadiazol-2-yl)-2-hydroxypropylamino)-3-vinylbenzonitrile] gave a pIC50 in assay [2] of 9.00.
For `Cc1c(N[C@@H](c2nnc(-c3cccc(F)c3)o2)[C@H](C)O)ccc(C#N)c1Cl` [Example 81, 2-chloro-4-((1R,2S)-1-(5-(3-fluorophenyl)-1,3,4-oxadiazol-2-yl)-2-hydroxypropylamino)-3-methylbenzonitrile], in assay [2], the pIC50 is 8.70.
